Experimental data reported in patent publication US20240058350A1, “Methods of Treatment” (Arena Pharmaceuticals, Inc., priority 2020, published 2024).

Tests used:
human 5-HT2A = human 5-HT2A (Homo sapiens, UniProt P28223); assay: affinity for human 5-HT2A; format: binding
Source text: (§1) M1 refers to N-(4-(2-(2-hydroxyethylamino)ethoxy)-3-(1-methyl-1H-pyrazol-5-yl)phenyl)-3-methoxybenzamide. M2 refers to N-(4-(2-aminoethoxy)-3-(1-methyl-1H-pyrazol-5-yl)phenyl)-3-methoxybenzamide. Compound 1, or a pharmaceutically acceptable salt, hydrate, or solvate thereof, inhibits serotonin-mediated vasoconstriction and inhibits serotonin-mediated amplification of platelet aggregation.

5-HT2B receptors = 5-HT2B receptors (Homo sapiens, UniProt P41595); assay: affinity for 5-HT2B receptors; format: binding
Sequence of 5-HT2B receptors (P41595 whole entry): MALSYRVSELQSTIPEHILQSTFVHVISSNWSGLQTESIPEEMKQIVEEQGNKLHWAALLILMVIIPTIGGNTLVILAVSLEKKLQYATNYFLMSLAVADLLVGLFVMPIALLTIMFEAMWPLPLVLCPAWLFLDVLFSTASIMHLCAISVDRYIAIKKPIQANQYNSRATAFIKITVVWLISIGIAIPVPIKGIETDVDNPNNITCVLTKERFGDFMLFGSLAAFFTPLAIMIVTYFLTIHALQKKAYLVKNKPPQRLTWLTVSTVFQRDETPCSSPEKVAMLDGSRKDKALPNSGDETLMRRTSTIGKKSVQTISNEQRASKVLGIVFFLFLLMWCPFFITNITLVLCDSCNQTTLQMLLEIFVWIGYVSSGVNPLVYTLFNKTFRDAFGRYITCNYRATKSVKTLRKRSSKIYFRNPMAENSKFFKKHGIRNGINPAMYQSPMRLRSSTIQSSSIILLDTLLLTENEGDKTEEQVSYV
Source text: as §1

5-HT2C receptors = biological target: T1, 5-HT2C receptors (Homo sapiens, UniProt P28335); assay: affinity for 5-HT2C receptors; format: binding
T1 sequence (P28335 33-458): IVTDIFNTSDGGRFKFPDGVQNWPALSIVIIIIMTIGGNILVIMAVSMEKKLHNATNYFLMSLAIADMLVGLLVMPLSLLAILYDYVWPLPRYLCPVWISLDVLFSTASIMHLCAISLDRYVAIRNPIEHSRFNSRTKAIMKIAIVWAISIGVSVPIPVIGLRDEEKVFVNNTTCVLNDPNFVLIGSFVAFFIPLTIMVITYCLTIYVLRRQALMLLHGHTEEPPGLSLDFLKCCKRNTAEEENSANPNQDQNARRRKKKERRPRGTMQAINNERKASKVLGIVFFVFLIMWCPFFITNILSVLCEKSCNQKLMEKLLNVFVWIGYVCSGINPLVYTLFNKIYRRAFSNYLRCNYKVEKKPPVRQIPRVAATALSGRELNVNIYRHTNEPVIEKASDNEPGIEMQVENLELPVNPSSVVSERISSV
Source text: as §1

[1] = tested on: serotonin-mediated vasoconstriction; assay: serotonin-mediated vasoconstriction
Source text: as §1

[2] = tested on: serotonin-mediated amplification of platelet aggregation; assay: serotonin-mediated amplification of platelet aggregation; format: cell-based
Source text: as §1

[3] = Clinical Trial 1: phase 1 single oral dose escalation, PK; format: in vivo, human; settings: healthy subjects; for half-life compared with the parent compound: single oral dose of Compound 1 HCl
Procedure: (§2) A phase 1, randomized, double-blind, placebo-controlled, single-dose escalation study was conducted to assess the tolerability, PK, and PD of the HCl salt of Compound 1 at doses of 1 to 320 mg (adjusted free-base concentration) administered orally as a single dose to a total of 91 healthy subjects.

[4] = tested on: 5-HT-mediated amplification of platelet aggregation; assay: Clinical Trial 1: PD, platelet aggregation with ADP with and without 5-HT; format: in vivo, human; settings: single oral doses above 1 mg, healthy subjects
Procedure: as §2
(§3) PD assessment consisted of measuring pre- and post-dose platelet aggregation using an in vitro assay with ADP with and without 5-HT. The degree of thrombin receptor activating peptide (TRAP)-induced platelet aggregation inhibition between groups was similar. However, Compound 1 inhibited 5-HT-mediated amplification of platelet aggregation at doses above 1 mg.

[5] = tested on: thrombin receptor activating peptide (TRAP)-induced platelet aggregation; assay: Clinical Trial 1: PD, TRAP-induced platelet aggregation; format: in vivo, human; settings: single oral dose versus placebo, healthy subjects
Procedure: as §2, §3

[6] = Clinical Trial 2: phase 1 multiple ascending oral dose TID for 7 days, PK; format: in vivo, human; settings: for accumulation ratio as measured by AUCtau: 60 and 80 mg Compound 1 oral TID, after 7 days; for metabolite exposures with increasing Compound 1 doses / metabolite to parent ratios with increasing Compound 1 doses: oral TID for 7 days
Procedure: A phase 1, randomized, double-blind, placebo-controlled, multiple-ascending dose-escalation study was conducted to assess the safety, tolerability, PD, and steady state PK of the HCl salt of Compound 1 from 5 to 80 mg (adjusted free-base concentration) administered orally TID for 7 days in a total of 50 healthy subjects.

[7] = Clinical Trial 3: phase 1 single ascending IV dose, PK; format: in vivo, human
Procedure: (§4) A phase 1, randomized, blinded, sponsor-open, placebo-controlled, single ascending dose (SAD) study was conducted to assess the safety, tolerability, PK, and PD of single IV doses of Compound 1 and two active metabolites (M1 and M2) in healthy adult subjects. Five dose cohorts (each cohort composed of six Compound 1 subjects and two placebo subjects) were evaluated.
(§5) Subjects received a single dose of Compound 1 or placebo. Each cohort included a sentinel group of two subjects (one active and one placebo) dosed at least 24 hours before the remaining six subjects (five active and one placebo). The remaining subjects were dosed following review of all available safety and tolerability data from the sentinel subjects. Safety, tolerability, and PK data were reviewed after the completion of each dose cohort and prior to escalation to the next dose cohort. PD data were reviewed prior to dosing subsequent cohorts. Selection of dose for subsequent cohorts was based on the data from previous cohort(s). Following administration of Compound 1 or placebo, subjects were confined for 72 hours to monitor safety and to collect PK/PD samples. Cardiodynamic electrocardiogram (ECG) sampling were collected pre-dose and through 24 hours post-dose in each cohort. The clinic contacted subjects on Day 11 (1 day) to determine if any adverse event (AE) occurred since discharge.
(§6) IV doses of placebo […], 1 mg Compound 1 (n=6), 5 mg Compound 1 (n=6), 10 mg Compound 1 (n=5), 20 mg Compound 1 (n=6), 30 mg Compound 1 (n=6), or 40 mg Compound 1 (n=6) were administered. The doses of 1 mg, 5 mg, 10 mg, and 20 mg of Compound 1 were administered by slow bolus infusion over a period of two minutes, while the doses of 30 mg and 40 mg of Compound 1 were administered over a period of five minutes. The PD effects of the single doses were examined immediately after dosing and 4 hours after dosing.

[8] = tested on: 5-HT-mediated amplification of platelet aggregation; assay: Clinical Trial 3: PD, 5-HT-mediated amplification of platelet aggregation; format: in vivo, human; settings: single IV doses of 20 mg and greater
Procedure: as §4
as §5, with “discharge. […]” for “discharge.”

[9] = Clinical Trial 3: safety and tolerability of single IV doses; format: in vivo, human
Procedure: as §4, §5, §6

[10] = all doses, Day 1 versus Day 7, oral TID for 7 days

Sequence of human 5-HT2A (P28223 whole entry): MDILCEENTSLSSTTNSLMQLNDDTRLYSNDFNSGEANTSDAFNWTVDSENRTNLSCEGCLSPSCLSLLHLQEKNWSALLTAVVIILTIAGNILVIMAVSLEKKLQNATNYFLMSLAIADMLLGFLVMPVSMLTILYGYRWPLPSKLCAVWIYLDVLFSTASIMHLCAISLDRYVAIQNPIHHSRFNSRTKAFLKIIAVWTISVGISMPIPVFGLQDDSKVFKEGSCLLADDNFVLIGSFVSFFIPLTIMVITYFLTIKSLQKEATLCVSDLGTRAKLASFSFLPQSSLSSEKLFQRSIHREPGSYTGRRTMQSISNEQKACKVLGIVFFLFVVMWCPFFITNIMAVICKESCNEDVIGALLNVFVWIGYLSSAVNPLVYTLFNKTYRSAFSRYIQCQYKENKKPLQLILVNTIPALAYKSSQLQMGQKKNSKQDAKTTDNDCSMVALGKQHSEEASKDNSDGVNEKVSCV

COc1cccc(C(=O)Nc2ccc(OCCN3CCOCC3)c(-c3ccnn3C)c2)c1 [Compound 1, 3-methoxy-N-[3-(2-methylpyrazol-3-yl)-4-(2-morpholin-4-ylethoxy)phenyl]benzamide]
affinity for human 5-HT2A (human 5-HT2A): high affinity
affinity for 5-HT2B receptors (5-HT2B receptors): no appreciable affinity
affinity for 5-HT2C receptors (5-HT2C receptors): no appreciable affinity
serotonin-mediated vasoconstriction [1]: inhibits
serotonin-mediated amplification of platelet aggregation [2]: inhibits
absorption ([3]; single oral dose 1 to 320 mg): rapidly absorbed at all doses
half-life as the dose was escalated ([3]; single oral dose 1 to 320 mg): half-life increased
plasma exposure measures versus dose ([3]; single oral dose 1 to 320 mg): increased in a greater than dose proportional manner
5-HT-mediated amplification of platelet aggregation [4]: inhibited
degree of TRAP-induced platelet aggregation inhibition between groups [5]: similar
AUC accumulation ratio [6, 10]: less than 2
Cmax accumulation ratio [6, 10]: less than 2
absorption ([6]; oral 5 to 80 mg TID for 7 days, healthy subjects): rapidly absorbed at all doses
exposure as measured by AUC versus dose ([6]; oral TID, 5 and 10 mg): dose proportional
exposure as measured by AUC versus dose ([6]; oral TID, 40, 60, and 80 mg, Day 1 and Day 7): greater than dose proportional
Cmax ([7]; human, plasma, 40 mg single IV dose, healthy adult subjects, read-out: mean observed Cmax): 1840 ng/mL
half-life ([7]; human, plasma, single IV doses 1 to 40 mg, healthy adult subjects, read-out: mean terminal elimination half-life): 60 to 120 min
dose dependence of mean terminal elimination half-life ([7]; single IV doses 1 to 40 mg): dose-dependent
inhibition of 5-HT-mediated amplification of platelet aggregation [8]: Near-maximal inhibition
epistaxis, subjects affected ([9]; Compound 1 group, single IV dose): one subject
bleeding-related TEAEs, Bleeding Academic Research Consortium (BARC) Type ([9]; single IV doses): ≤ 1
discontinuation of treatment ([9]; single IV doses 1 to 40 mg): No subjects discontinued treatment

COc1cccc(C(=O)Nc2ccc(OCCNCCO)c(-c3ccnn3C)c2)c1 [Compound M1, N-(4-(2-(2-hydroxyethylamino)ethoxy)-3-(1-methyl-1H-pyrazol-5-yl)phenyl)-3-methoxybenzamide]
affinity for human 5-HT2A (human 5-HT2A): high affinity
affinity for 5-HT2B receptors (5-HT2B receptors): no appreciable affinity
affinity for 5-HT2C receptors (5-HT2C receptors): no appreciable affinity
metabolite-to-parent ratios as the dose was escalated ([3]; single oral dose 1 to 320 mg): decreased
half-life compared with the parent compound [3]: longer half-lives than the parent compound
accumulation ratio as measured by AUCtau [6]: approximately 2
metabolite exposures with increasing Compound 1 doses [6]: increased
metabolite to parent ratios with increasing Compound 1 doses [6]: decreased

COc1cccc(C(=O)Nc2ccc(OCCN)c(-c3ccnn3C)c2)c1 [Compound M2, N-(4-(2-aminoethoxy)-3-(1-methyl-1H-pyrazol-5-yl)phenyl)-3-methoxybenzamide]
affinity for human 5-HT2A (human 5-HT2A): high affinity
affinity for 5-HT2B receptors (5-HT2B receptors): no appreciable affinity
affinity for 5-HT2C receptors (5-HT2C receptors): no appreciable affinity
metabolite-to-parent ratios as the dose was escalated ([3]; single oral dose 1 to 320 mg): decreased
half-life compared with the parent compound [3]: longer half-lives than the parent compound
accumulation ratio as measured by AUCtau [6]: approximately 2
metabolite exposures with increasing Compound 1 doses [6]: increased
metabolite to parent ratios with increasing Compound 1 doses [6]: decreased
